# Experimental data as given in patent US9056102B2, “VEGF-activated trail ligands” (The Regents of the University of California, priority 2005, dated 2015).
# How the values were obtained:
# [1] = system: U87MG human glioblastoma cells; assay: Potentiation of R2FasL by chemotherapeutic agents, resazurin cell viability assay; assay type: cell-based; settings: 72 hours drug (Bis VIII 1 μM, camptothecin 20 nM, etoposide 5 μM), then R2FasL 10 μL/well for 40 hours
# [2] = system: U87MG human glioblastoma cells; assay: Potentiation of R2FasL by chemotherapeutic agents, LDH release assay; settings: 72 hours drug (Bis VIII 1 μM, camptothecin 20 nM, etoposide 5 μM), then R2FasL 10 μL/well for 40 hours
# Experimental: To determine if the activity of R2FasL can be potentiated by chemotherapeutic agents, the following experiments were performed. U87MG human glioblastoma cells were plated in 96-well plates in 100 μL of complete medium with 10% fetal calf serum at 25,000 cells/well. Forty-eight hours later cells were treated with either bisindolylmaleimide VIII (Bis VIII, final concentration 1 μM), camptothecin (final concentration 20 nM), etoposide (final concentration 5 μM), or DMSO vehicle (1 μL/well). Bis VIII, camptothecin, and etoposide (all from Biomol) were dissolved in DMSO and added at 1 μL/well. After 72 hours of drug exposure, cells were treated with FLAG antibody affinity-purified R2FasL solution (10 μL/well), and incubated for an additional 40 hours. Cell viability and cytotoxicity were assayed using the resazurin assay and the LDG release assay, respectively, as described above.
smiles,measurement,setting,value
CC[C@@]1(O)C(=O)OCc2c1cc1n(c2=O)Cc2cc3ccccc3nc2-1 [camptothecin],potentiation of R2FasL apoptotic activity (cell viability),[1],Potentiation of R2FasL apoptotic activity
same,potentiation of R2FasL cytotoxic activity (LDH release),[2],Potentiation of R2FasL cytotoxic activity
